# According to patent US7700577B2, “Carbohydrate based anti-bacterials” (Alchemia Limited, priority 2002, dated 2010):
# What was measured:
# [1] = system: Micrococcus luteus (ATCC272); experiment: MIC testing, additional organisms: Micrococcus luteus; format: cell-based; settings: incubation at 30 degrees C
# Description: (§1) The broth microdilution format of the National Committee for Clinical Laboratory Standards (NCCLS) approved standard for susceptibility tests as outlined in M7-A4 “methods for dillution Antimicrobial susceptibility tests for bacteria that grow aerobically; approved standard—fifth edition”, January 2000 was utilized for minimum inhibitory concentration testing in Mueller-Hinton broth. The broth for Streptococcus pyogenes testing was supplemented with 2% laked horse blood. A positive result in initial testing was determined by complete inhibition of macroscopic bacterial growth at a concentration of 128 micrograms per mL after incubation for 16 to 24 hours at 37 degrees C. In the case of Micrococcus luteus, incubation was at 30 degrees C.
# (§2) Bacterial Types Are: • SA24 S. aureus after 24 hours exposure • SA48 S. aureus after 48 hours exposure • EC24 E. coli after 24 hours exposure
# (§3) The following compounds were tested against additional organisims with the following results. • 1. Micrococcus luteus (ATCC272) • 2. Staphylococcus aureus (ATCC29213) • 3. Staphylococcus aureus (ATCC43300) MRSA • 4. Enterococcus faecalis (ATCC29212) • 5. Enterococcus faecalis (ATCCS 1299) Vancomycin resistant • 6. Streptococcus pyrogenes (ATCC8668)
# [2] = system: Streptococcus pyrogenes (ATCC8668); experiment: MIC testing, additional organisms: Streptococcus pyrogenes; format: cell-based; settings: broth supplemented with 2% laked horse blood
# Description: as §1, §2, §3
# [3] = system: Staphylococcus aureus (ATCC43300) MRSA; experiment: MIC testing, additional organisms: Staphylococcus aureus MRSA; format: cell-based
# Description: as §1, §2, §3
# [4] = system: Staphylococcus aureus (ATCC29213); experiment: MIC testing, additional organisms: Staphylococcus aureus ATCC29213; format: cell-based
# Description: as §1, §2, §3
# [5] = system: Enterococcus faecalis (ATCCS 1299) Vancomycin resistant; experiment: MIC testing, additional organisms: Enterococcus faecalis vancomycin resistant; format: cell-based
# Description: as §1, §2, §3
# [6] = system: Enterococcus faecalis (ATCC29212); experiment: MIC testing, additional organisms: Enterococcus faecalis ATCC29212; format: cell-based
# Description: as §1, §2, §3
# S. aureus = experiment: MIC testing, broth microdilution (NCCLS), S. aureus; format: cell-based, Staphylococcus aureus; settings: for SA24 (MIC): S. aureus after 24 hours exposure; for SA48 (MIC): S. aureus after 48 hours exposure
# Description: (§4) The broth microdilution format of the National Committee for Clinical Laboratory Standards (NCCLS) approved standard for susceptibility tests as outlined in M7-A4 “methods for dillution Antimicrobial susceptibility tests for bacteria that grow aerobically; approved standard—fifth edition”, January 2000 was utilized for minimum inhibitory concentration testing in Mueller-Hinton broth. The broth for Streptococcus pyogenes testing was supplemented with 2% laked horse blood. A positive result in initial testing was determined by complete inhibition of macroscopic bacterial growth at a concentration of 128 micrograms per mL after incubation for 16 to 24 hours at 37 degrees C. In the case of Micrococcus luteus, incubation was at 30 degrees C. […] Bacterial Types Are: • SA24 S. aureus after 24 hours exposure • SA48 S. aureus after 48 hours exposure • EC24 E. coli after 24 hours exposure
# E. coli = experiment: MIC testing, broth microdilution (NCCLS), E. coli; format: cell-based; settings: E. coli after 24 hours exposure
# Description: as §4
Compound,"MIC, organism 1 [1]","MIC, organism 6 [2]","MIC, organism 3 [3]","MIC, organism 2 [4]","MIC, organism 5 [5]","MIC, organism 4 [6]",SA24 (MIC) (S. aureus),EC24 (MIC) (E. coli),SA48 (MIC) (S. aureus)
CCCCCCCCCCS(=O)(=O)NC1C(CO)OCC(NC(=O)Nc2cccc(C(F)(F)F)c2)C1OC1OC(CO)C(O)C(O)C1NC(=O)Nc1cccc(C(F)(F)F)c1 (stereo not drawn) [compound 69],+ (+ indicates an MIC value of less than 128 micrograms per mL),+ (+ indicates an MIC value of less than 128 micrograms per mL),+ (+ indicates an MIC value of less than 128 micrograms per mL),+ (+ indicates an MIC value of less than 128 micrograms per mL),− (− indicates an MIC of greater then 128 micrograms per mL),+ (+ indicates an MIC value of less than 128 micrograms per mL),+ (+ indicates an MIC value of less than 128 micrograms per mL),–,–
CCCCCCCCCCCCC(=O)NC1C(CO)OCC(NC(=O)Nc2cccc(C(F)(F)F)c2)C1OC1OC(CO)C(O)C(O)C1NC(=O)Nc1cccc(C(F)(F)F)c1 (stereo not drawn) [compound 76],+ (+ indicates an MIC value of less than 128 micrograms per mL),+ (+ indicates an MIC value of less than 128 micrograms per mL),+ (+ indicates an MIC value of less than 128 micrograms per mL),+ (+ indicates an MIC value of less than 128 micrograms per mL),+ (+ indicates an MIC value of less than 128 micrograms per mL),+ (+ indicates an MIC value of less than 128 micrograms per mL),+ (+ indicates an MIC value of less than 128 micrograms per mL),–,–
O=C(Nc1cccc(C(F)(F)F)c1)NC1COC(CO)C(NC(=O)c2ccc(-c3ccccc3)cc2)C1OC1OC(CO)C(O)C(O)C1NC(=O)Nc1cccc(C(F)(F)F)c1 (stereo not drawn) [compound 74],+ (+ indicates an MIC value of less than 128 micrograms per mL),+ (+ indicates an MIC value of less than 128 micrograms per mL),+ (+ indicates an MIC value of less than 128 micrograms per mL),+ (+ indicates an MIC value of less than 128 micrograms per mL),+ (+ indicates an MIC value of less than 128 micrograms per mL),+ (+ indicates an MIC value of less than 128 micrograms per mL),+ (+ indicates an MIC value of less than 128 micrograms per mL),–,–
CCCCCC(=O)NC1C(CO)OCC(NC(=O)Nc2cccc(C(F)(F)F)c2)C1OC1OC(CO)C(O)C(O)C1NC(=O)Nc1cccc(C(F)(F)F)c1 (stereo not drawn) [compound 70],+ (+ indicates an MIC value of less than 128 micrograms per mL),+ (+ indicates an MIC value of less than 128 micrograms per mL),− (− indicates an MIC of greater then 128 micrograms per mL),− (− indicates an MIC of greater then 128 micrograms per mL),− (− indicates an MIC of greater then 128 micrograms per mL),+ (+ indicates an MIC value of less than 128 micrograms per mL),− (− indicates an MIC of greater then 128 micrograms per mL),–,–
O=C(Nc1cccc(C(F)(F)F)c1)NC1COC(CO)[C@H](NC(=O)c2ccc(-c3ccccc3)cc2)[C@@H]1O[C@@H]1OC(CO)[C@@H](O)[C@H](O)C1NS(=O)(=O)c1cccc(C(F)(F)F)c1 (stereo partly drawn) [compound 48],–,–,–,–,–,–,+ (+ indicates an MIC value of less than 128 micrograms per mL),− (− indicates an MIC of greater then 128 micrograms per mL),+ (+ indicates an MIC value of less than 128 micrograms per mL)
O=C(Nc1cccc(C(F)(F)F)c1)NC1C(OC2C(NC(=O)c3cccc(C(F)(F)F)c3)COC(CO)C2NC(=O)c2ccc(-c3ccccc3)cc2)OC(CO)C(O)C1O (stereo not drawn) [compound 5],–,–,–,–,–,–,+ (+ indicates an MIC value of less than 128 micrograms per mL),− (− indicates an MIC of greater then 128 micrograms per mL),+ (+ indicates an MIC value of less than 128 micrograms per mL)
N=C(Nc1cccc(C(F)(F)F)c1)NC1[C@H](O[C@@H]2C(NC(=N)Nc3cccc(C(F)(F)F)c3)COC(CO)[C@@H]2NC(=O)C(N)c2ccc(-c3ccccc3)cc2)OC(CO)[C@@H](O)[C@@H]1O (stereo partly drawn) [compound 25],–,–,–,–,–,–,+ (+ indicates an MIC value of less than 128 micrograms per mL),+ (+ indicates an MIC value of less than 128 micrograms per mL),+ (+ indicates an MIC value of less than 128 micrograms per mL)
Cc1ccc(NC(=N)NC2[C@H](O[C@@H]3C(NC(=O)Nc4cccc(C(F)(F)F)c4)COC(CO)[C@@H]3NC(=O)c3ccc(-c4ccccc4)cc3)OC(CO)[C@@H](O)[C@@H]2O)cc1 (stereo partly drawn) [compound 46],–,–,–,–,–,–,–,− (− indicates an MIC of greater then 128 micrograms per mL),+ (+ indicates an MIC value of less than 128 micrograms per mL)
CC(C)=CCCC(C)=CCCC(C)=CCN[C@H]1C(CO)OCC(NC(=N)Nc2cccc(C(F)(F)F)c2)[C@H]1O[C@@H]1OC(CO)[C@@H](O)[C@H](O)C1NC(=N)Nc1cccc(C(F)(F)F)c1 (stereo partly drawn) [compound 24],–,–,–,–,–,–,+ (+ indicates an MIC value of less than 128 micrograms per mL),+ (+ indicates an MIC value of less than 128 micrograms per mL),+ (+ indicates an MIC value of less than 128 micrograms per mL)
O=C(Nc1cccc(C(F)(F)F)c1)NC1C(OC2C(NC(=O)OCc3ccccc3)COC(CO)C2NC(=O)c2ccc(-c3ccccc3)cc2)OC(CO)C(O)C1O (stereo not drawn) [compound 8],–,–,–,–,–,–,+ (+ indicates an MIC value of less than 128 micrograms per mL),− (− indicates an MIC of greater then 128 micrograms per mL),+ (+ indicates an MIC value of less than 128 micrograms per mL)
CCCCCC(C)CCC(=O)N[C@H]1C(CO)OCC(NC(=N)Nc2cccc(C(F)(F)F)c2)[C@H]1O[C@@H]1OC(CO)[C@@H](O)[C@H](O)C1NC(=N)Nc1cccc(C(F)(F)F)c1 (stereo partly drawn) [compound 19],–,–,–,–,–,–,+ (+ indicates an MIC value of less than 128 micrograms per mL),+ (+ indicates an MIC value of less than 128 micrograms per mL),+ (+ indicates an MIC value of less than 128 micrograms per mL)
N=C(Nc1cccc(C(F)(F)F)c1)NC1[C@H](O[C@@H]2C(NC(=N)Nc3cccc(C(F)(F)F)c3)COC(CO)[C@@H]2NC(=N)Nc2ccc(-c3ccccc3)cc2)OC(CO)[C@@H](O)[C@@H]1O (stereo partly drawn) [compound 21],–,–,–,–,–,–,+ (+ indicates an MIC value of less than 128 micrograms per mL),+ (+ indicates an MIC value of less than 128 micrograms per mL),+ (+ indicates an MIC value of less than 128 micrograms per mL)
N=C(Nc1cccc(C(F)(F)F)c1)NC1[C@H](O[C@@H]2C(NC(=N)Nc3cccc(C(F)(F)F)c3)COC(CO)[C@@H]2NCc2ccc(-c3ccccc3)cc2)OC(CO)[C@@H](O)[C@@H]1O (stereo partly drawn) [compound 20],–,–,–,–,–,–,+ (+ indicates an MIC value of less than 128 micrograms per mL),+ (+ indicates an MIC value of less than 128 micrograms per mL),+ (+ indicates an MIC value of less than 128 micrograms per mL)
O=C(Nc1cccc(C(F)(F)F)c1)NC1[C@H](O[C@@H]2C(NS(=O)(=O)c3cccc(C(F)(F)F)c3)COC(CO)[C@@H]2NC(=O)c2ccc(-c3ccccc3)cc2)OC(CO)[C@@H](O)[C@@H]1O (stereo partly drawn) [compound 37],–,–,–,–,–,–,+ (+ indicates an MIC value of less than 128 micrograms per mL),− (− indicates an MIC of greater then 128 micrograms per mL),+ (+ indicates an MIC value of less than 128 micrograms per mL)
O=C(Cc1cccc(C(F)(F)F)c1)NC1COC(CO)C(NC(=O)c2ccc(-c3ccccc3)cc2)C1OC1OC(CO)C(O)C(O)C1NC(=O)Cc1cccc(C(F)(F)F)c1 (stereo not drawn) [compound 2],–,–,–,–,–,–,+ (+ indicates an MIC value of less than 128 micrograms per mL),− (− indicates an MIC of greater then 128 micrograms per mL),+ (+ indicates an MIC value of less than 128 micrograms per mL)
